Measured values published in patent US20130095512A1, “DEVICE FOR SORTING, CLASSIFYING, AND ASSAYING PARTITION BEHAVIOR OF CELL MEMBRANE BIOMOLECULES AND METHODS BASED THEREON” (Cornell University, priority 2010, published 2013).

Assays:
Format in all cases: physicochemical
[1] = Partitioning kinetics of membrane biomolecules in patterned two-phase coexistent supported lipid bilayers in a microfluidic channel (BPD); settings: for K (eq) partition coefficient: concentration in raft phase over POPC-rich phase from fluorescence intensity after equilibrating 2 hrs; for partitioning between raft phase and POPC-rich phase at equilibrium: flow stopped, equilibrated for 2 hrs; for k+ (association rate constant): from POPC-rich phase (70/20/10 POPC/PSM/Chol) to raft phase, first order, initial slope of NR-α plot; for k− (dissociation rate constant): from raft phase to POPC-rich phase, reversed flow after 2 hrs equilibration; for K (=k+/k−) partition coefficient: ratio of association/dissociation kinetic parameters
Excerpt: Preparation of patterned two-phase coexistent lipid bilayers in a microfluidic device. Supported lipid bilayers (SLBs) are commonly formed by the rupture and self-assembly of large unilamellar lipid vesicles in solution onto glass (Brian, A. A.; McConnell, H. M. Proc. Natl. Acad. Sci. USA 1984, 81, 6159; Johnson, J. M.; Ha, T.; Chu, S.; Boxer, S. G. Biophysical Journal 2002, 83, 3371) or other oxidized supports (Richter, R. P.; Borat, R.; Brisson, A. R. Langmuir 2006, 22, 3497), as illustrated in FIG. 17a. A bilayer is formed during laminar flow conditions instead of under stagnant incubation. Laminar flow is an advantage for patterning heterogeneous bilayers in microfluidic channels because reagents follow streamlines with minimal mixing (Kam, L.; Boxer, S. G. Journal of the American Chemical Society 2000, 122, 12901). Thus, lipid vesicles of different compositions can be sent through the channel on different streamlines and upon rupture will form contiguous, parallel bilayers of different compositions with stable interfaces, if the compositions are chosen so that they are phase stable.
Formation of contiguous patterned membrane and loading and transport of membrane-bound biomolecules. […] A contiguous lipid membrane is formed with POPC-rich phase (70/20/10 molar ratio of POPC/PSM/Chol), raft phase (60/40 molar ratio of PSM/Chol), and the membrane loaded with 1 mol % of Alexa-594 head-labeled GM1 and 1 mol % of head-labeled BODIPY-DHPE doped in the POPC-rich phase.
Partitioning kinetic measurements by monitoring species' concentrations in the raft phase with time. […] The partitioning assay was carried out in three stages: association stage, equilibrium stage, and dissociation stage (FIGS. 13a-c). The experimental procedure and analyses are somewhat analogous to the measurement of adsorption/desorption binding kinetics by surface plasmon resonance (SPR) (Wegner, G. J.; Wark, A. W.; Lee, H. J.; Codner, E.; Saeki, T.; Fang, S.; Corn, R. M. Analytical Chemistry 2004, 76, 5677), except here there is a 2-D planar geometry and observing association/dissociation kinetics of membrane-bound biomolecules to/from a lipid membrane phase along an interface. To obtain association kinetics from POPC-rich phase to raft phase, target species in the POPC-rich phase were brought to a pristine raft phase and the amount entering into the raft phase in the control volume was monitored with time (FIG. 13a, stage 1). After most of the species initially loaded in the channel entered into the main partitioning channel, the next step was to stop the convective flow and wait until the system equilibrated (FIG. 13a, stage 2). Equilibration was confirmed when the concentration profile no longer changed across the channel. Finally, to obtain dissociation kinetics, the net amount of species leaving the raft phase was monitored when the hydrodynamic flow was reversed and fresh POPC-rich phase membrane could be monitored for the re-association of molecules now moving from the raft phase back into the POPC-rich phase (FIG. 13a, stage 3). Three different molecules were tested: Alex594-head-labeled GM1, BODIPY-tail-labeled GM1, and head-labeled BODIPY-DHPE.
Theory of partitioning kinetic analyses. The association/dissociation kinetics of fluorescently-labeled species was analyzed into/from the raft phase using a mass-balance approach. A control volume used for the mass balance is illustrated in FIG. 14. The accumulation of species in the raft phase over time can be represented as:
Association kinetic analysis. To obtain the association kinetic information from the POPC-rich phase to the raft phase, the experiment was operated in such a way so that only the association term, r+, is important and the dissociation term and the convective flow rate terms can be neglected in Equation 1. At the beginning of the experiment, a hydrodynamic force was provided to move the species into the control volume (the white box in FIG. 14). […]

[2] = Lipid diffusion measurements by fluorescence recovery after photobleaching (FRAP) in supported lipid bilayers
Description: Lipid Diffusion Measurements. Diffusion coefficients of all biomolecule targets in each phase were determined by fluorescence recovery after photobleaching (FRAP). To measure the diffusion coefficient and mobile fraction of the biomolecule in a supported bilayer, liposomes of the same composition used in experiments were prepared with 0.1% of either BODIPY DHPE or GM1. 0.5 mg/ml liposomes were incubated in a PDMS well attached to a piranha cleaned slide. Lipid vesicles were allowed to incubate for 5 minutes, before being rinsed with buffer for one minute. In the case of the POPC-rich phase bilayer, the entire process is at room temperature. In the case of the raft phase bilayer, the prepared vesicle solutions were heated to 65° C. (a temperature above the miscibility transition temperature of the lipid mixture). The warm vesicle solutions were added to wells heated to 65° C. and were later rinsed with the buffer at 65° C. Following the formation of the raft phase bilayer, the heated sample was gently cooled down to room temperature prior measuring the diffusion coefficient.
To aid in focusing on the plane of the bilayer on the microscope, the bilayer was scratched with a dissection tool to remove a thin line of bilayer. Following the scratching step, the bilayer was rinsed again for one minute with buffer to remove any lipids in the bulk that were removed by scratching. A 20 μm diameter spot in the supported lipid bilayer was bleached with a laser for 200 ms. The recovery of the photobleached spot was recorded for 10 minutes for the POPC-rich phase sample and one hour for the raft phase sample. The fluorescence intensity of the bleached spot was determined after background subtraction and normalization for each image. The recovery data was fit using the method of Soumpasis (Zheng Y Z, Foster L J. Biochemical and Proteomic Approaches for the Study of Membrane Microdomains. Proteomics. 2009; 72:12-22). The diffusion coefficient, D, was then calculated using the following equation: D=w^2/4t1/2, where w is the full width at half-maximum of the Gaussian profile of the focused beam. The average diffusion coefficient and mobile fractions were determined from three separate samples of each sample and are listed in Table 2. These values are in line with numerous reports of lipid diffusion in supported bilayers.

[3] = Stamped patterned bilayers, electric field-induced migration and partitioning into raft regions; settings: stamped raft regions in fluid phase bilayer, FIG. 3
Excerpt: In one embodiment, the separation bilayer is patterned with multiple phases (raft and non-raft) that interact with species differentially to effect a separation analogous to a chromatographic separation strategy (FIG. 3). Here differently partitioning behavior serves to change the mobility of one species relative to the other such that they become separated. FIG. 3 illustrates how patterned bilayers of a BPD can be made and used for separation purposes. In one embodiment of the method for making a BPD, the steps can comprise: (A) Forming a bilayer via vesicle fusion of one composition, then (B) selectively remove by stamping regions where the second phase is desired. Back filling with the second vesicles (B). Stamping out a thin section of bilayer where a third vesicle formulation fuses; these vesicles contain the species to be separated (denoted by the mixture of light and dark circles arranged in a thin rectangle). An electric field can then be applied to induce the mixed charged species to migrate through the bilayer and partition as they sample the different regions of the bilayer. […] The GM1 is labeled with Alexa-594, which makes it, and the rafts in which they are located, appear bright.

[4] = Partitioning in the BPD on CTB binding; settings: CTB binds to GM1
Excerpt: βCD-mediated efflux is used to disrupt raft microdomains and stimulate a change in GM1 partitioning. Changes in partitioning of both GM1 and PLAP can also be induced by binding to CTB and/or antibodies (Kahya N, Brown D A, Schwille P. Raft Partitioning and Dynamic Behavior of Human Placental Alkaline Phosphatase in Giant Unilamellar Vesicles. Biochemistry. 2005; 44:7479-89). Antibody binding is known to cause several-fold enrichment in the raft phase of both targets and detection will be straightforward using fluorescence labels or conjugates.

[5] = POPC-rich phase (70/20/10 POPC/PSM/Chol)

Molecule | K (eq) partition coefficient [1] | partitioning between raft phase and POPC-rich phase at equilibrium [1] | k+ (association rate constant) [1] | k− (dissociation rate constant) [1] | K (=k+/k−) partition coefficient [1] | Diffusion coefficient [2, 5] | Diffusion coefficient ([2]; Raft phase (60/40 PSM/Chol)) | partitioning into raft regions [3] | rate of the molecule to pass across the interface ([1]; from Table 1) | Diffusion coefficient ([2]; POPC-rich phase) | rate for a molecule to diffuse to the interface ([2]; diffusion coefficient/distance, 1 μm away in the POPC-rich phase, rough estimate) | Diffusion coefficient ([2]; raft phase) | diffusion rate from the interface into the middle of the raft patch ([2]; ~100 nm, raft phase, estimate) | enrichment in the raft phase on CTB binding [4]
CCCCCCCCCCCCCCCC(=O)OC[C@H](COP(=O)(O)OCCNC(=O)CCc1ccc2n1[B-](F)(F)[N+]1=C(C)C=C(C)C1=C2)OC(=O)CCCCCCCCCCCCCCC.CCN(CC)CC [Head-labeled BODIPY-DHPE, N-(4,4-difluoro-5,7-dimethyl-4-bora-3a,4a-diaza-s-indacene-3-propionyl)-1,2-dihexadecanoyl-sn-glycero-3-phosphoethanolamine, triethylammonium salt] | 0.6 | most of BODIPY-DHPE remains in the POPC-rich phase | 0.57 ± 0.08 μm/min | 0.98 ± 0.04 μm/min | 0.58 | 0.63 μm^2/s | 0.05 μm^2/s | exclusion of BODIPY DHPE lipids from rafts regions | – | – | – | – | – | –
BODIPY®FL C5-ganglioside GM1 [Tail-labeled GM1] | 0.75 | – | 0.64 ± 0.07 μm/min | 0.72 ± 0.05 μm/min | 0.89 | 0.82 μm^2/s | 0.08 μm^2/s | – | – | – | – | – | – | –
bovine brain asialoganglioside-GM1 labeled with Alexa Fluor® 594 hydrazide [Head-labeled GM1] | 1.96 | Most of GM1 partitions to the raft phase | 1.53 ± 0.03 μm/min | 0.85 ± 0.03 μm/min | 1.8 | 0.77 μm^2/s | 0.06 μm^2/s | preferential partitioning of GM1 lipids into raft regions | ~0.025 µm/s | 0.77 μm^2/sec | 0.77 μm/sec | 0.06 μm^2/sec | 0.6 μm/sec | enrichment was observed
